The subject of data set [1] is Leptosphaeria nodorum (LEPTNO). In words: In vitro fungitoxicity of hydrazones with and without copper towards Leptosphaeria nodorum (Example 26). Format: cell-based. The note with it: 72 h at 25° C.; for inhibition of growth at 0.05 µg/mL: Parastagonospora nodorum, 72 h, copper-minus medium, read-out: LEPTNO % Inhn. Minus Copper Observed.
Another data set concerns Phytophthora infestans. The format is in vivo, Phytophthora infestans on tomato. The note with it: applied 24 h before inoculation, assessed 7 days after inoculation.
Setting [2] is: test compound Concn. 0.05 μg/mL.
[3] abbreviates: copper-plus medium (CuCl2 10 μM), test compound Concn. 0.05 μg/mL.
Setting [4] is: hydrazone 50 ppm with 50 μM CuCl2.2H2O, tomato late blight.
Setting [5] is: compound 0.05 μg/mL, copper-plus medium (CuCl2.2H2O).
Where [6] appears, read: hydrazone 50 ppm + 50 μM CuCl2.2H2O, tomato.

We go through 33 compounds from patent US20120010075A1 (priority 2009, published 2012).

Like-named read-outs stand apart in the source and are kept apart here.

With `O=C(N/N=C/c1cccc(C(F)(F)F)c1O)c1ccc([N+](=O)[O-])cc1` [Example 350], the melting point (in general, the temperature, or range, at which the solid turns liquid) was 253 to 255 °C. The inhibition of growth at 0.05 µg/mL in data set [1] (setting [2]) was found to be 11.3%. Also, in data set [1] (setting [3]), the “LEPTNO % Inhn. Plus Copper Observed” value is on record as 94.9%. The “TLB % Control” value in the data set with Phytophthora infestans (setting [4]) was 97.0%.
On the same counts, the results for `C/C(=N\NC(=O)c1ccc(Cl)cc1)c1cc(C)ccc1O` [Example 317] are 203 to 210 °C, 16.3%, 97.9% and 24.0%.
Compound `COc1ccc(/C(C)=N/NC(=O)c2ccccc2C)c(O)c1` [Example 281] came in with a melting point of 170 to 172 °C. Further, the inhibition of growth at 0.05 µg/mL in data set [1] (compound 0.05 μg/mL) amounted to 1.4%. In addition, in data set [1] (setting [5]), the “LEPTNO % Inhn. Plus Copper Observed” value came out at 98.4%. Also, in the data set on Phytophthora infestans (setting [6]), the “TLB % Control” value is 67.0%.
`COc1ccc(/C(C)=N/NC(=O)c2ccc(C)cc2)c(O)c1OC` [Example 554] came in with a melting point of 245 to 249 °C. Moreover, the inhibition of growth at 0.05 µg/mL in data set [1] (setting [2]) was determined as 0%. Also, the “LEPTNO % Inhn. Plus Copper Observed” value in data set [1] (setting [3]) stood at 97.3%. Further, the “TLB % Control” value with Phytophthora infestans (setting [4]) was 100.0%.
On the same counts, the results for `O=C(N/N=C/c1cc(Cl)cc(Cl)c1O)c1ccc2ccccc2c1O` [Example 488] are 276 to 278 °C, 20.1%, 92.6% and 72.0%.
`C/C(=N\NC(=O)c1ccccc1)c1cc(Br)ccc1O` [Example 287] had a melting point of 204 to 208 °C. Also, the inhibition of growth at 0.05 µg/mL in data set [1] (compound 0.05 μg/mL) was 0%. Also, the “LEPTNO % Inhn. Plus Copper Observed” value in data set [1] (setting [5]) is 98.3%. Besides, the “TLB % Control” value with Phytophthora infestans (setting [6]) is listed as 65.0%.
`O=C(N/N=C/c1cc(Cl)cc(Br)c1O)c1cccc(F)c1` [Example 414] showed a melting point of 209 to 215 °C. Also, the inhibition of growth at 0.05 µg/mL in data set [1] (setting [2]) came out at 14.6%. Moreover, the “LEPTNO % Inhn. Plus Copper Observed” value in data set [1] (setting [3]) came to 97.9%. For the same compound, the “TLB % Control” value in the data set on Phytophthora infestans (setting [4]) is 90.0%.
On the same counts, the results for `O=C(N/N=C/c1cc(Cl)cc(C(F)(F)F)c1O)c1cccc(F)c1` [Example 378] are 219 to 221 °C, 26.3%, 98.4% and 97.0%.
On the same counts, the results for `COc1cc(O)c(/C(C)=N/NC(=O)c2ccc(Br)cc2)c(OC)c1` [Example 570] are 134 to 159 °C, 3.2%, 97.2% and 39.0%.
For `COc1ccc(/C(C)=N/NC(=O)c2ccccc2Br)c(O)c1` [Example 476], in that order: 205 to 206 °C, 0%, 93.9% and 69.0%.
In the case of `O=C(N/N=C/c1cc(C(F)(F)F)cc(C(F)(F)F)c1O)c1ccc(F)cc1` [Example 335], the melting point was 226 to 228 °C. In addition, in data set [1] (setting [2]), the inhibition of growth at 0.05 µg/mL worked out at 10.2%. Besides, the “LEPTNO % Inhn. Plus Copper Observed” value in data set [1] (setting [3]) is on record as 96.8%. For the same compound, the “TLB % Control” value with Phytophthora infestans (setting [4]) is on record as 95.0%.
Compound `Cc1ccc(C(=O)N/N=C/c2c(Cl)ccc(Cl)c2O)c(O)c1` [Example 374] displayed a melting point of 248 to 254 °C. The inhibition of growth at 0.05 µg/mL in data set [1] (setting [2]) is 11.1%. Further, the “LEPTNO % Inhn. Plus Copper Observed” value in data set [1] (setting [3]) worked out at 98.2%. Further, the “TLB % Control” value with Phytophthora infestans (setting [4]) stood at 98.0%.
For `O=C(N/N=C/c1c(O)cccc1Cl)c1ccccc1O` [Example 406], in that order: 277 to 280 °C, 6.7%, 96.1% and 98.0%.
For `N#Cc1cc(F)c(O)c(/C=N/NC(=O)c2ccccc2)c1` [Example 307], in that order: 262 to 263 °C, 0%, 91.3% and 25.0%.
For `COc1ccc(C(=O)N/N=C(\C)c2cc(Br)cc(Br)c2O)cc1` [Example 546], in that order: 247 to 248 °C, 7.6%, 97.7% and 100.0%.
For the compound `O=C(N/N=C/c1cc(Cl)cc(Br)c1O)c1ccc(C(F)(F)F)cc1` [Example 164], the melting point was 250 to 251 °C. Also, the inhibition of growth at 0.05 µg/mL in data set [1] (compound 0.05 μg/mL) worked out at 10.8%. In addition, the “LEPTNO % Inhn. Plus Copper Observed” value in data set [1] (setting [5]) came out at 98.6%. In addition, the “TLB % Control” value in the data set on Phytophthora infestans (setting [6]) is given as 96.5%.
For `Cc1ccc(C(=O)N/N=C/c2cc(Cl)cc(Cl)c2O)c(O)c1` [Example 308], the melting point fell in the range of 262 to 269 °C. Also, the inhibition of growth at 0.05 µg/mL in data set [1] (setting [2]) was determined as 37.2%. Besides, the “LEPTNO % Inhn. Plus Copper Observed” value in data set [1] (setting [3]) came to 97.7%. Moreover, the “TLB % Control” value with Phytophthora infestans (setting [4]) amounted to 96.0%.
On the same counts, the results for `O=C(N/N=C/c1cc(Cl)cc(C(F)(F)F)c1O)c1cccc([N+](=O)[O-])c1` [Example 382] are 235 to 237 °C, 19.3%, 98.5% and 96.0%.
For `C/C(=N\NC(=O)c1cccc(Cl)c1)c1cc(F)cc(F)c1O` [Example 577], in that order: 279 to 282 °C, 1.9%, 97.9% and 100.0%.
`O=C(N/N=C/c1c(O)cccc1Cl)c1cccc(F)c1` [Example 400] displayed a melting point of 257 to 259 °C. Besides, the inhibition of growth at 0.05 µg/mL in data set [1] (setting [2]) was 0.5%. In addition, the “LEPTNO % Inhn. Plus Copper Observed” value in data set [1] (setting [3]) is reported as 97.9%. Further, the “TLB % Control” value in the data set on Phytophthora infestans (setting [4]) worked out at 96.0%.
On to `O=C(N/N=C/c1cc(C(F)(F)F)cc(C(F)(F)F)c1O)c1ccccc1O` [Example 340], for which the melting point lay within 231 to 235 °C. Further, the inhibition of growth at 0.05 µg/mL in data set [1] (setting [2]) is 18%. In data set [1] (setting [3]), the “LEPTNO % Inhn. Plus Copper Observed” value was 96.2%. Besides, the “TLB % Control” value in the data set on Phytophthora infestans (setting [4]) came out at 95.0%.
As for `C/C(=N\NC(=O)c1ccccc1C(F)(F)F)c1ccccc1O` [Example 58], the melting point fell in the range of 208 to 210 °C. The inhibition of growth at 0.05 µg/mL in data set [1] (compound 0.05 μg/mL) was found to be 0%. Also, in data set [1] (setting [5]), the “LEPTNO % Inhn. Plus Copper Observed” value is given as 95.0%. Besides, in the data set on Phytophthora infestans (setting [6]), the “TLB % Control” value is 49.0%.
For `COc1ccc(Br)c(/C=N/NC(=O)c2ccccc2)c1O` [Example 243], in that order: 187 to 189 °C, 5.3%, 96.7% and 86.4%.
The compound `COc1ccc(/C(C)=N/NC(=O)c2ccccc2Br)c(O)c1OC` [Example 561] displayed a melting point of 195 to 200 °C. For the same compound, the inhibition of growth at 0.05 µg/mL in data set [1] (setting [2]) worked out at 0%. Moreover, in data set [1] (setting [3]), the “LEPTNO % Inhn. Plus Copper Observed” value is 92.2%. Further, the “TLB % Control” value in the data set on Phytophthora infestans (setting [4]) turned out to be 60.0%.
On the same counts, the results for `O=C(N/N=C/c1ccc(Cl)cc1O)c1ccc([N+](=O)[O-])cc1` [Example 394] are 278 to 281 °C, 8%, 95.9% and 71.0%.
`C/C(=N\NC(=O)c1cccc(Oc2ccccc2)c1)c1ccccc1O` [Example 47]: the melting point is 178 to 180 °C. For the same compound, the inhibition of growth at 0.05 µg/mL in data set [1] (compound 0.05 μg/mL) turned out to be 0%. For the same compound, the “LEPTNO % Inhn. Plus Copper Observed” value in data set [1] (setting [5]) was found to be 97.1%. Also, in the data set on Phytophthora infestans (setting [6]), the “TLB % Control” value was 33.0%.
`O=C(N/N=C/c1cccc(C(F)(F)F)c1O)c1cccc(F)c1` [Example 345] returned a melting point of 176 to 180 °C. In addition, the inhibition of growth at 0.05 µg/mL in data set [1] (setting [2]) turned out to be 18.8%. Further, the “LEPTNO % Inhn. Plus Copper Observed” value in data set [1] (setting [3]) amounted to 97.9%. In addition, in the data set with Phytophthora infestans (setting [4]), the “TLB % Control” value is 97.0%.
For `Cc1ccc(C(=O)N/N=C/c2ccc(Cl)c(Cl)c2O)cc1` [Example 355], the melting point was 254 to 256 °C. Also, the inhibition of growth at 0.05 µg/mL in data set [1] (setting [2]) was 19.6%. Also, the “LEPTNO % Inhn. Plus Copper Observed” value in data set [1] (setting [3]) is given as 89.8%. Further, the “TLB % Control” value in the data set with Phytophthora infestans (setting [4]) is given as 87.0%.
For the compound `Cc1ccc(C(=O)N/N=C/c2cc(Cl)ccc2O)c(O)c1` [Example 446], the melting point was in the range of 282 to 286 °C. In data set [1] (setting [2]), the inhibition of growth at 0.05 µg/mL was 23.5%. In addition, in data set [1] (setting [3]), the “LEPTNO % Inhn. Plus Copper Observed” value is listed as 95.4%. Besides, in the data set on Phytophthora infestans (setting [4]), the “TLB % Control” value was found to be 57.0%.
For the compound `O=C(N/N=C/c1cccc(C(F)(F)F)c1O)c1ccc(F)cc1` [Example 346], the melting point fell in the range of 187 to 188 °C. Moreover, the inhibition of growth at 0.05 µg/mL in data set [1] (setting [2]) is 30%. In addition, the “LEPTNO % Inhn. Plus Copper Observed” value in data set [1] (setting [3]) is listed as 96.7%. The “TLB % Control” value with Phytophthora infestans (setting [4]) turned out to be 96.0%.
On the same counts, the results for `C/C(=N\NC(=O)c1ccc(Br)cc1)c1cccc(Cl)c1O` [Example 500] are 226 to 232 °C, 9.2%, 93.2% and 80.0%.
On the same counts, the results for `COc1ccc(C(=O)N/N=C/c2cc(Cl)cc(Cl)c2O)c(O)c1` [Example 486] are 267 to 269 °C, 12.8%, 96.6% and 95.0%.
On the same counts, the results for `O=C(N/N=C/c1c(Cl)ccc(Cl)c1O)c1ccccc1O` [Example 372] are 260 to 262 °C, 15.1%, 97.4% and 98.0%.
